From BindingDB's records for PubMed 9400006 (Emory University, 1997)
pKi: −log10 of the molar value.

Assays:
[1] = target: T1, 5-hydroxytryptamine receptor 1A (Rattus norvegicus, UniProt P19327)
T1 sequence (P19327 whole entry): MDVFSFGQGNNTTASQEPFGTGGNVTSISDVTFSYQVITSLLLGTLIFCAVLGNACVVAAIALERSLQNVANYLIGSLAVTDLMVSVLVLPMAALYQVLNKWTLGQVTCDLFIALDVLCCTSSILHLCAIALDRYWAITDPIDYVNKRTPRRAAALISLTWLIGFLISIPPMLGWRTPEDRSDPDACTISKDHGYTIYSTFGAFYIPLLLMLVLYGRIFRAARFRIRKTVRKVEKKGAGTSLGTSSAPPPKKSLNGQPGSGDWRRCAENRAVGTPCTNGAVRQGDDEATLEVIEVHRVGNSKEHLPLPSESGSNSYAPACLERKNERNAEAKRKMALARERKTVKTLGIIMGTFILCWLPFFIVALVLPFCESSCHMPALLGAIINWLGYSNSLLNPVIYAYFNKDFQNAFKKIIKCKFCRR

[2] = target: T2, Muscarinic acetylcholine receptor M2 (Rattus norvegicus, UniProt P10980)
T2 sequence (P10980 whole entry): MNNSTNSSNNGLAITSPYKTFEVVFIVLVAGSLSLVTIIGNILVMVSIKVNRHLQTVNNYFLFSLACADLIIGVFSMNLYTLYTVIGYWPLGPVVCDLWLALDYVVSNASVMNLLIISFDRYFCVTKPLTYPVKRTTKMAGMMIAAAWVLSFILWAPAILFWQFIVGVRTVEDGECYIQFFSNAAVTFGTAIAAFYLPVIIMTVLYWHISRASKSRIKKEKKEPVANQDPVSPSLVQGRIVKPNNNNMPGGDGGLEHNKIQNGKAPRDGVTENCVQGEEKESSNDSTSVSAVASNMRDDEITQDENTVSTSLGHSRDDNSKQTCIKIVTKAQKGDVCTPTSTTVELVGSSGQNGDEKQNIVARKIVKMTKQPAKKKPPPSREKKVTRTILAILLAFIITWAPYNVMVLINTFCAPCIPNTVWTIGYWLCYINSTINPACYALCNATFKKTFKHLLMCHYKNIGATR

[3] = target: T3, Alpha-2A adrenergic receptor (Homo sapiens, UniProt P08913)
T3 sequence (P08913 whole entry): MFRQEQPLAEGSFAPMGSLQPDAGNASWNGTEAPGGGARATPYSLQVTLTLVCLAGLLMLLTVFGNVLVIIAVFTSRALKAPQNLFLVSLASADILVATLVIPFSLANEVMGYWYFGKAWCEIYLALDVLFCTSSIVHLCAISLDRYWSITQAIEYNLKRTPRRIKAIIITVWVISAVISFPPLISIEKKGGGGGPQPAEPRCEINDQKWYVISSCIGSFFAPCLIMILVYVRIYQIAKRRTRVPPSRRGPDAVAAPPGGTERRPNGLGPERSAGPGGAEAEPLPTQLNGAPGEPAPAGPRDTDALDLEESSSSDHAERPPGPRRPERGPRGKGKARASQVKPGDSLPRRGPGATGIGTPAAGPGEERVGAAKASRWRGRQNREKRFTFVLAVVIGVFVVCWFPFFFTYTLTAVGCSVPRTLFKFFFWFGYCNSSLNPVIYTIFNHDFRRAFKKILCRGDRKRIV

[4] = target: Sodium-dependent serotonin transporter (Rattus norvegicus, UniProt P31652)
Sequence of Sodium-dependent serotonin transporter (P31652 whole entry): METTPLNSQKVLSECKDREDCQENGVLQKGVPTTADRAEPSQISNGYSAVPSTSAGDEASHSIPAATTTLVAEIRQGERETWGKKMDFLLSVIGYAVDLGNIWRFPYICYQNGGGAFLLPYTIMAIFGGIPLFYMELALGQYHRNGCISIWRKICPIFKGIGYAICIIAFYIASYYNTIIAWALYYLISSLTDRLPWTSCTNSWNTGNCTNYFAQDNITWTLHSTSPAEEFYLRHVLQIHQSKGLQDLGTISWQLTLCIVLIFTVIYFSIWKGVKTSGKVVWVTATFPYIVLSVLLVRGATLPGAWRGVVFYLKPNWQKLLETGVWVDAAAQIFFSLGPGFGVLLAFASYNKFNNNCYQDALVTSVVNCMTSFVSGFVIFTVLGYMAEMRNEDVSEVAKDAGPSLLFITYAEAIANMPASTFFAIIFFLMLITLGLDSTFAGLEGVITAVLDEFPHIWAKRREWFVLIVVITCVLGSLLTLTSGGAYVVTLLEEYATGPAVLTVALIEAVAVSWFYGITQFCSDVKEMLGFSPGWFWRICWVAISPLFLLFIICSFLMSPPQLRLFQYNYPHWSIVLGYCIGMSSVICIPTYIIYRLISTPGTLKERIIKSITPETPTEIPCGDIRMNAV

Work on `CN(C)CCC=C1c2ccccc2CCc2ccccc21` yielded a pKi [1] of 6.89, a pKi [2] of 8.59 and a pKi [3] of 6.94.
With `CN[C@@H]1CC[C@@H](c2ccc(Cl)c(Cl)c2)c2ccccc21` [[4-(3,4-Dichloro-phenyl)-1,2,3,4-tetrahydro-naphthalen-1-yl]-methyl-amine] the pKi [1] was 5.44 and the pKi [2] was 6.63.
For `Fc1ccc([C@@H]2CCNC[C@H]2COc2ccc3c(c2)OCO3)cc1` [PAROXETINE], the pKi [1] was under 5.00 and the pKi [2] was 7.38.
`Clc1cccc(N2CCNCC2)c1` [mCPP] was tested, and the pKi [4] was 6.66, the pKi [1] was 7.80 and the pKi [2] was 5.33. It also gave a pKi [3] of 6.95.
For `COc1ccc(C(CN(C)C)C2(O)CCCCC2)cc1` (stereo unspecified) [NSC_62923], the pKi [1] was under 5.00, the pKi [2] was under 5.00 and the pKi [3] was under 5.00.
In the case of `O=c1[nH]n(CCCN2CCN(c3cccc(Cl)c3)CC2)c(=O)n1CCOc1ccccc1` [Triazoledione], the pKi [4] was under 5.00, the pKi [1] was 5.86 and the pKi [2] was under 5.00. It also gave a pKi [3] of 5.72.
In the case of `CC(O)c1nn(CCCN2CCN(c3ccc(Cl)cc3)CC2)c(=O)n1CCOc1ccccc1` (stereo unspecified) [NSC_127096], the pKi [4] was 6.21, the pKi [1] was 7.25 and the pKi [2] was under 5.00. The pKi [3] was 7.20.
`O=c1n(CCCN2CCN(c3cccc(Cl)c3)CC2)nc2ccccn12` [2-{3-[4-(3-chlorophenyl)piperazin-1-yl]propyl}[1,2,4]triazolo[4,3-a]pyridin-3(2H)-one] was tested, and the pKi [2] was under 5.00.
Molecule `CNCCCN1c2ccccc2CCc2ccccc21` [Desmethylimipramine] has a pKi [2] of 7.43.
`CCc1nn(CCCN2CCN(c3cccc(Cl)c3)CC2)c(=O)n1CCOc1ccccc1` [2-{3-[4-(3-chlorophenyl)piperazin-1-yl]propyl}-5-ethyl-4-(2-phenoxyethyl)-2,4-dihydro-3H-1,2,4-triazol-3-one] showed a pKi [1] of 7.28 and a pKi [2] of 5.34.
